Like-named read-outs stand apart in the source and are kept apart here.
Key:
human recombinant MAGL = human recombinant MAGL (Homo sapiens (Human), UniProt Q99685); test: In vitro inhibition of human recombinant MAGL activity (Cayman inhibitor screening kit, 4-nitrophenylacetate hydrolysis); format: biochemical
Excerpt: The inhibitory effect of the synthetic chemicals on activity of human recombinant MAGL was studied using commercial inhibitor screening kit (Cayman Chemical). […] The absorbance of the yellow product can be analyzed using the plate reader. […]

human recombinant FAAH = human recombinant FAAH (Homo sapiens (Human), UniProt O00519); test: In vitro inhibition of human recombinant FAAH activity (Cayman FAAH inhibitor screening kit, AMC arachidonoyl amide hydrolysis); format: biochemical
Sequence of human recombinant FAAH (O00519 whole entry): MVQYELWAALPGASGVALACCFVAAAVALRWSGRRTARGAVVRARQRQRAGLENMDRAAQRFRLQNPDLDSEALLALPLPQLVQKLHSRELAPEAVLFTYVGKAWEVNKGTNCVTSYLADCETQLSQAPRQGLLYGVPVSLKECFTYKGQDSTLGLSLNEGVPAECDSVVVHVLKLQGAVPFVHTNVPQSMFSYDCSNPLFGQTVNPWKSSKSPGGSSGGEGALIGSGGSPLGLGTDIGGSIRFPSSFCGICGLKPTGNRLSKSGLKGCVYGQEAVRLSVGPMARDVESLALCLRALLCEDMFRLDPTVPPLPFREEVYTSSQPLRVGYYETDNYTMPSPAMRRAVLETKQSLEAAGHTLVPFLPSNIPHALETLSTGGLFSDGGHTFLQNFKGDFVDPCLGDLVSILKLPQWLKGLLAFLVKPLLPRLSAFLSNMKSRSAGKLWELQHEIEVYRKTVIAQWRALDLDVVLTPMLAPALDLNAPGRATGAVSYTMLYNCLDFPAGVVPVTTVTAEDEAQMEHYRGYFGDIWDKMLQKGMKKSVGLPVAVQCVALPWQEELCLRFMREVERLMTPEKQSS
Excerpt: In brief, FAAH hydrolyzes AMC arachidonoyl amide resulting in the release of the fluorescent product, while the inhibitor will inhibit the FAAH activity and thus reduce the fluorescent signal.

[1] = human recombinant MAGL, read-out: Inhibition on MAGL activity (IC50)

Sequence of human recombinant MAGL (Q99685 whole entry): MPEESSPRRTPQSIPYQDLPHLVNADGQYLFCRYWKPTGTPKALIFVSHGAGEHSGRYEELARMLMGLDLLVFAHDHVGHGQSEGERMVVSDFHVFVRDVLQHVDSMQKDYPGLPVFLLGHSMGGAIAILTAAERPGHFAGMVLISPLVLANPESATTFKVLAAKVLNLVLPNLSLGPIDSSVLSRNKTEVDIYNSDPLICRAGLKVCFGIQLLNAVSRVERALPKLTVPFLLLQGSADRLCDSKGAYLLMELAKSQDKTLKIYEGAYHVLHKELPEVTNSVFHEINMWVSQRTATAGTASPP

Molecule	IC50 (human recombinant MAGL; [1]) [nM]	IC50 (human recombinant FAAH) [µM]	IC50 (human recombinant MAGL) [nM]
1-(4-((2,3-dihydrobenzo[b][1,4]dioxin-6-yl)(4-methoxyphenyl)methyl)piperazine-1-carbonyl)-1H-benzo[d][1,2,3]triazole-6-carbonitrile and 1-(4-((2,3-dihydrobenzo[b][1,4]dioxin-6-yl)(4-methoxyphenyl)methyl)piperazine-1-carbonyl)-1H-benzo[d][1,2,3]triazole-5-carbonitrile [Example 106]	1 to 10	~10	
1-(4-((4-methoxyphenyl)(pyridin-3-yl)methyl)piperazine-1-carbonyl)-1H-benzo[d][1,2,3]triazole-6-carbonitrile and 1-(4-((4-methoxyphenyl)(pyridin-3-yl)methyl)piperazine-1-carbonyl)-1H-benzo[d][1,2,3]triazole-5-carbonitrile [Example 103]	1 to 10	1 to 10	
1-(4-(bis(2,3-dihydrobenzo[b][1,4]dioxin-6-yl)methyl)piperazine-1-carbonyl)-1H-benzo[d][1,2,3]triazole-6-carbonitrile and 1-(4-(bis(2,3-dihydrobenzo[b][1,4]dioxin-6-yl)methyl)piperazine-1-carbonyl)-1H-benzo[d][1,2,3]triazole-5-carbonitrile [Example 91]	1 to 10	> 50	
1-(4-(di(pyridin-3-yl)methyl)piperazine-1-carbonyl)-1H-benzo[d][1,2,3]triazole-6-carbonitrile and 1-(4-(di(pyridin-3-yl)methyl)piperazine-1-carbonyl)-1H-benzo[d][1,2,3]triazole-5-carbonitrile [Example 105]	10 to 1000	> 10	
O=C(OC(C(F)(F)F)C(F)(F)F)N1CCN(Cc2ccc(C(F)(F)F)cc2N2CCCC2)CC1 [ABX-1431]		> 50	
O=C(N1CCN(C(c2ccc3c(c2)COCO3)c2ccc3c(c2)COCO3)CC1)n1cccn1 [Example 1, (4-(bis(4H-benzo[d][1,3]dioxin-6-yl)methyl)piperazin-1-yl)(1H-pyrazol-1-yl)methanone]	> 100	> 50	
O=C(N1CCN(C(c2ccc3c(c2)COCO3)c2ccc3c(c2)COCO3)CC1)n1cnc(Cl)n1 [Example 2, (4-(bis(4H-benzo[d][1,3]dioxin-6-yl)methyl)piperazin-1-yl)(3-chloro-1H-1,2,4-triazol-1-yl)methanone]	1 to 10	> 10	
O=C(OC(C(F)(F)F)C(F)(F)F)N1CCN(C(c2ccc3c(c2)COCO3)c2ccc3c(c2)COCO3)CC1 [Example 3, 1,1,1,3,3,3-hexafluoropropan-2-yl 4-(bis(4H-benzo[d][1,3]dioxin-6-yl)methyl)piperazine-1-carboxylate]	1 to 20	> 50	
O=C(Oc1ccc([N+](=O)[O-])cc1)N1CCN(C(c2ccc3c(c2)COCO3)c2ccc3c(c2)COCO3)CC1 [Example 4, 4-nitrophenyl 4-(bis(4H-benzo[d][1,3]dioxin-6-yl)methyl)piperazine-1-carboxylate]		> 10	100 to 1000
O=C(Oc1ccc(F)cc1)N1CCN(C(c2ccc3c(c2)COCO3)c2ccc3c(c2)COCO3)CC1 [Example 5, 4-fluorophenyl 4-(bis(4H-benzo[d][1,3]dioxin-6-yl)methyl)piperazine-1-carboxylate]	> 100	> 50	
O=C(ON1C(=O)CCC1=O)N1CCN(C(c2ccc3c(c2)COCO3)c2ccc3c(c2)COCO3)CC1 [Example 6, 2,5-dioxopyrrolidin-1-yl 4-(bis(4H-benzo[d][1,3]dioxin-6-yl)methyl)piperazine-1-carboxylate]	> 100	> 50	
O=C(Oc1ccc(Oc2ccccc2)cc1)N1CCN(C(c2ccc3c(c2)COCO3)c2ccc3c(c2)COCO3)CC1 [Example 7, 4-phenoxyphenyl 4-(bis(4H-benzo[d][1,3]dioxin-6-yl)methyl)piperazine-1-carboxylate]	> 100	> 10	
O=C(N1CCN(C(c2ccc3c(c2)COCO3)c2ccc3c(c2)COCO3)CC1)n1nnc2ccccc21 [Example 8, (1H-benzo[d][1,2,3]triazol-1-yl)(4-(bis(4H-benzo[d][1,3]dioxin-6-yl)methyl)piperazin-1-yl)methanone]	1 to 20	> 20	
O=C(N1CCN(C(c2ccc3c(c2)COCO3)c2ccc3c(c2)COCO3)CC1)n1ccnc1 [Example 9, (4-(bis(4H-benzo[d][1,3]dioxin-6-yl)methyl)piperazin-1-yl)(1H-imidazol-1-yl)methanone]	> 100	> 10	
O=C(N1CCN(C(c2ccc3c(c2)COCO3)c2ccc3c(c2)COCO3)CC1)n1cncn1 [Example 10, (4-(bis(4H-benzo[d][1,3]dioxin-6-yl)methyl)piperazin-1-yl)(1H-1,2,4-triazol-1-yl)methanone]	10 to 100	1 to 10	
CCN(C(=O)N1CCN(C(c2ccc3c(c2)COCO3)c2ccc3c(c2)COCO3)CC1)C(C)C [Example 11, 4-(bis(4H-benzo[d][1,3]dioxin-6-yl)methyl)-N-ethyl-N-isopropylpiperazine-1-carboxamide]	> 100	> 50	

Molecule	IC50 (human recombinant MAGL; [1]) [nM]	IC50 (human recombinant FAAH) [µM]	IC50 (human recombinant MAGL) [nM]
O=C(Oc1ccc2c(c1)CCC2)N1CCN(C(c2ccc3c(c2)COCO3)c2ccc3c(c2)COCO3)CC1 [Example 12, 2,3-dihydro-1H-inden-5-yl 4-(bis(4H-benzo[d][1,3]dioxin-6-yl)methyl)piperazine-1-carboxylate]	> 100	> 10	
O=C(Oc1ccc([N+](=O)[O-])cc1[N+](=O)[O-])N1CCN(C(c2ccc3c(c2)COCO3)c2ccc3c(c2)COCO3)CC1 [Example 13, 2,4-dinitrophenyl 4-(bis(4H-benzo[d][1,3]dioxin-6-yl)methyl)piperazine-1-carboxylate]	> 100	> 10	
COc1ccc(OC(=O)N2CCN(C(c3ccc4c(c3)COCO4)c3ccc4c(c3)COCO4)CC2)cc1 [Example 14, 4-methoxyphenyl 4-(bis(4H-benzo[d][1,3]dioxin-6-yl)methyl)piperazine-1-carboxylate]	> 100	> 50	
CCC(CC)OC(=O)N1CCN(C(c2ccc3c(c2)COCO3)c2ccc3c(c2)COCO3)CC1 [Example 15, pentan-3-yl 4-(bis(4H-benzo[d][1,3]dioxin-6-yl)methyl)piperazine-1-carboxylate]	> 100	> 50	
O=C(OC1CCCCC1)N1CCN(C(c2ccc3c(c2)COCO3)c2ccc3c(c2)COCO3)CC1 [Example 16, cyclohexyl 4-(bis(4H-benzo[d][1,3]dioxin-6-yl)methyl)piperazine-1-carboxylate]	> 100	> 50	
O=C(N1CCCCC1)N1CCN(C(c2ccc3c(c2)COCO3)c2ccc3c(c2)COCO3)CC1 [Example 17, (4-(bis(4H-benzo[d][1,3]dioxin-6-yl)methyl)piperazin-1-yl)(piperidin-1-yl)methanone]	> 100	> 50	
CCN(CC)C(=O)N1CCN(C(c2ccc3c(c2)COCO3)c2ccc3c(c2)COCO3)CC1 [Example 18, 4-(bis(4H-benzo[d][1,3]dioxin-6-yl)methyl)-N,N-diethylpiperazine-1-carboxamide]	> 100	> 50	
O=C(Oc1ccc([N+](=O)[O-])cc1F)N1CCN(C(c2ccc3c(c2)COCO3)c2ccc3c(c2)COCO3)CC1 [Example 19, 2-fluoro-4-nitrophenyl 4-(bis(4H-benzo[d][1,3]dioxin-6-yl)methyl)piperazine-1-carboxylate]	> 100	> 50	
O=C(Oc1ccccn1)N1CCN(C(c2ccc3c(c2)COCO3)c2ccc3c(c2)COCO3)CC1 [Example 20, pyridin-2-yl 4-(bis(4H-benzo[d][1,3]dioxin-6-yl)methyl)piperazine-1-carboxylate]	> 100	> 50	
S=C(N1CCN(C(c2ccc3c(c2)COCO3)c2ccc3c(c2)COCO3)CC1)n1cncn1 [Example 21, (4-(bis(4H-benzo[d][1,3]dioxin-6-yl)methyl)piperazin-1-yl)(1H-1,2,4-triazol-1-yl)methanethione]	> 100	> 50	
O=C(On1nnc2ccc(C(F)(F)F)cc21)N1CCN(C(c2ccc3c(c2)COCO3)c2ccc3c(c2)COCO3)CC1 [Example 22, 6-(trifluoromethyl)-1H-benzo[d][1,2,3]triazol-1-yl 4-(bis(4H-benzo[d][1,3]dioxin-6-yl)methyl)piperazine-1-carboxylate]	> 100	> 50	
O=C(On1nnc2cccnc21)N1CCN(C(c2ccc3c(c2)COCO3)c2ccc3c(c2)COCO3)CC1 [Example 23, 3H-[1,2,3]triazolo[4,5-b]pyridin-3-yl 4-(bis(4H-benzo[d][1,3]dioxin-6-yl)methyl)piperazine-1-carboxylate]	> 100	> 10	
N#Cc1cnn(C(=O)N2CCN(C(c3ccc4c(c3)COCO4)c3ccc4c(c3)COCO4)CC2)c1 [Example 24, 1-(4-(bis(4H-benzo[d][1,3]dioxin-6-yl)methyl)piperazine-1-carbonyl)-1H-pyrazole-4-carbonitrile]	1 to 10	1 to 10	
O=C(N1CCN(C(c2ccc3c(c2)COCO3)c2ccc3c(c2)COCO3)CC1)n1cc(-c2ccccc2)nn1 [Example 25, (4-(bis(4H-benzo[d][1,3]dioxin-6-yl)methyl)piperazin-1-yl)(4-phenyl-1H-1,2,3-triazol-1-yl)methanone]	10 to 100	> 10	
O=C(N1CCN(C(c2ccc3c(c2)COCO3)c2ccc3c(c2)COCO3)CC1)n1ncc(-c2ccccc2)n1 [Example 26, (4-(bis(4H-benzo[d][1,3]dioxin-6-yl)methyl)piperazin-1-yl)(4-phenyl-2H-1,2,3-triazol-2-yl)methanone]	10 to 100	1 to 10	
NC(=O)c1cccc(-c2cccc(OC(=O)NC3CCCCC3)c2)c1 [URB597, reference compound]	> 50000		

Source: US12378231B2, “Small molecules as monoacylglycerol lipase (MAGL) inhibitors, compositions and use thereof” (APOGEE PHARMACEUTICALS, INC., priority 2023, dated 2025)
